Results: article PMC6222829, “Synthesis, Molecular Docking and Anticancer Activity of Diflunisal Derivatives as Cyclooxygenase Enzyme Inhibitors” (Molecules : A Journal of Synthetic Chemistry and Natural …, 2018)
“Also recorded” adds a separate entry of the source.

Assays:
T47D cell line [1] = experiment: MTS cytotoxicity assay, T47D; assay type: cell-based, human; set-up: key to IC50 T47D: PCV: Promoting cell viability; NSC: No significant change; conditions: for IC50 T47D / IC50: MTS assay, 72 h incubation; for IC50: Homo sapiens, T47D
Experimental: (§1) In this project, the colorectal cancer cell line HCT116 (ATCC® CCL-247™), […] prostate cancer cell line PC-3 (ATCC® CRL-1435™), breast cancer cell lines T47D (ATCC® HTB-133™), MCF7 (ATCC® HTB-22™) and finally, epithelial embryonic kidney cell line HEK293 (ATCC® CRL-1573™) were used. All media were completed with %10 fetal bovine serum (FBS) and %1 penicillin streptomycin amphotericin (PSA). All cells were cultured periodically at 37 °C, 5% (v/v) CO2 and 95% (v/v) air in T-75 flasks. Different media were used for the different cell lines based on ATCC standards: MCF7 and HEK293 cell lines were cultured in DMEM High Mmedium (ATCC, 30-2003); T47D and PC-3 cell lines were cultured in RPM 1640 medium (ATCC, 30-2001); HCT116 cell line was cultured in DMEM F12 medium (ATCC, 30-2006). RPM 1640 medium was further completed with 0.2 unit/mL bovine insulin for the T47D cell line. Cells were passaged when they reached %80 confluency in order to support proliferation.
(§2) The effects of the synthesized compounds on the cell viability were tested. Stock solutions for each compound were prepared by measuring 20 mg of each compound and dissolving it in 1 mL DMSO to a final concentration of […], followed by filtration through a 0.2-μm filter (Sartorius AG, Gottingen, Germany). Then stock solutions were diluted as 1/10, 1/100 and 1/1000 in the designated media and applied on the cell lines. In order to determine the effect of DMSO itself, the same dilutions were performed by using DMSO, only and applied on the cell lines. Cell densities used for each cell line in 96 well plate were as follows: for PC-3, HCT116 and HEK293 cell lines 5000 cells/well; for T47D cell lines 20,000 cells/well. Cell viability was measured by the MTS cytotoxicity assay (CellTiter96 AqueousOne Solution; Promega, Southampton, UK) according to the manufacturer’s instructions. 3-(4,5-Dimethylthiazol-2-yl)-5-(3-carboxymethoxyphenyl)-2-(4-sulfo-phenyl)-2H-tetrazolium (MTS) is a yellow tetrazolium salt which is catabolized to formazan by dehydrogenase enzyme in the mitochondria of the living cells. Formazan is a purple compound and the detection in this assay is based on the measurement of formazan compounds by an ELISA plate reader. After incubating the cells for 72 h, 10 µL MTS reagent and 100 µL designated medium was given to the cells followed by 2 h of incubation at 37 °C. Thereafter, the absorbance at 490 nm was measured by an ELISA plate reader. (BioTek Instruments, Inc., Winooski, VT, USA). The activity doses of the compounds were determined according to 50% cell death rate when compared to DMSO, only after 72 h of incubation. […] IC50 values are calculated by the GraphPad prism software.

HEK293 cell line [2] = experiment: MTS cytotoxicity assay, HEK293; assay type: cell-based, human; conditions: normal cell line; for IC50: Homo sapiens, HEK293, MTS assay, 72 h incubation
Experimental: as §1, §2

PC-3 cell line [3] = experiment: MTS cytotoxicity assay, PC-3; assay type: cell-based, human; set-up: key to IC50 PC-3: PCV: Promoting cell viability; NSC: No significant change; conditions: for IC50 PC-3 / IC50: MTS assay, 72 h incubation; for IC50: Homo sapiens, PC-3
Experimental: as §1, §2

PC-3 cell line [4] = experiment: Annexin V/PI apoptosis assay, PC-3; assay type: cell-based, human; conditions: FITC-Annexin V/PI flow cytometry
Experimental: (§3) Evaluation of the effect of the synthesized compounds on apoptosis was determined by the FITCH-AnnexinV/PI protocol. Damaged cell membrane of necrotic cell enables propidium iodide (PI) to bind DNA and induces a red fluorescence, although it is excluded by non-damaged cells, select live and apoptotic cells. FITCH-Annexin V has the ability to bind to phosphatidylserine which is a specific marker of apoptosis. […] The lower left panel of the quadrant of the cytograms indicates live cells due to exclusion of PI and non-bound Annexin V.
(§4) The upper left panel of the cytogram represents necrotic cells which are positive for PI. Each cytogram of each cell was analyzed and a histogram graph was drawn for further visual information.
(§5) Determination of IC50 values was followed by the investigation of effect of the synthesized compounds on apoptosis. Cells were seeded into six well plates at densities of 15,000 cells/well (PC-3, HCT116 and HEK293 cell lines) and 60,000 cells/well (T47D cell lines). After the treatment cells were harvested and washed with ice cold PBS. 1 × Annexin-binding buffer was prepared while the cells were being washed. […] The incubation step was followed by adding 2 µL of the 100 µg/mL PI working solution to the proper groups then the fluorescence was observed by flow cytometry.

HEK293 cell line [5] = experiment: Annexin V/PI apoptosis assay, HEK293; assay type: cell-based; conditions: FITC-Annexin V/PI flow cytometry
Experimental: as §3, §4
Determination of IC50 values was followed by the investigation of effect of the synthesized compounds on apoptosis. Cells were seeded into six well plates at densities of 15,000 cells/well (PC-3, HCT116 and HEK293 cell lines) and 60,000 cells/well (T47D cell lines). After the treatment cells were harvested and washed with ice cold PBS. 1 × Annexin-binding buffer was prepared while the cells were being washed. Working solution of PI (100 µg/mL) was prepared as well by diluting 5 µL of the 1 mg/mL PI stock solution in 45 µL 1 × Annexin-binding buffer. After the precipitation of the cells, they were resuspended in 500 µL 1 × Annexin-binding buffer. Resuspended cells were separated into four groups (Annexin V, PI, Annexin V + PI and NC) each containing 100 µL of suspension. Five µL of the Annexin V conjugate was added to the proper groups. Samples were incubated for 15 min at room temperature. The incubation step was followed by adding 2 µL of the 100 µg/mL PI working solution to the proper groups then the fluorescence was observed by flow cytometry.

HCT116 cell line [6] = experiment: MTS cytotoxicity assay, HCT116; assay type: cell-based, human; conditions: for IC50: Homo sapiens, HCT-116, MTS assay, 72 h incubation
Experimental: as §1, §2

MCF7 cell line = experiment: MTS cytotoxicity assay, MCF7; assay type: cell-based; conditions: Homo sapiens, 72 h incubation
Experimental: as §1, §2

T47D cell line [7] = experiment: Annexin V/PI apoptosis assay, T47D; assay type: cell-based, human; conditions: FITC-Annexin V/PI flow cytometry
Experimental: as §3, §4, §5

HCT116 cell line [8] = experiment: Annexin V/PI apoptosis assay, HCT116; assay type: cell-based, human; conditions: FITC-Annexin V/PI flow cytometry
Experimental: as §3, §4, §5

| Structure (SMILES) | IC50 (HEK293 cell line [2]) [µM] | apoptosis / necrosis, HEK293 (HEK293 cell line [5]) | IC50 (T47D cell line [1]) [µM] | cytotoxic effect on HEK293 (in words) (HEK293 cell line [2]) | IC50 (PC-3 cell line [3]) [µM] | IC50 (MCF7 cell line) [µM] | other results |
| --- | --- | --- | --- | --- | --- | --- | --- |
| O=C(NNC(=S)Nc1cccc(F)c1)c1cc(-c2ccc(F)cc2F)ccc1O [Compound 4] | 617 | – | – | – | – | – | IC50 T47D (T47D cell line [1]): PCV; IC50 PC-3 (PC-3 cell line [3]): PCV |
| O=C(NNC(=S)Nc1cccc(Cl)c1)c1cc(-c2ccc(F)cc2F)ccc1O [Compound 5] | 44.4 | – | – | – | – | – | – |
| O=C(NNC(=S)Nc1cccc(Br)c1)c1cc(-c2ccc(F)cc2F)ccc1O [Compound 6, N-(3-Bromophenyl)-2-[(2′,4′-difluoro-4-hydroxybiphenyl-3-yl)carbonyl]hydrazine carbothioamide] | 93 ± 3.43 | did not result in apoptosis | 100 ± 2.3 | did not show cytotoxic effects | 41.8 ± 3.4 | – | apoptosis / necrosis, PC-3 (PC-3 cell line [4]): increase of late apoptosis markers; also recorded: undergo apoptosis highly; anticancer activity against PC-3 (in words) (PC-3 cell line [3]): displayed anti-tumourigenic activity |
| O=C(NNC(=S)Nc1ccc(Br)cc1)c1cc(-c2ccc(F)cc2F)ccc1O [Compound 7, N-(4-Bromophenyl)-2-[(2′,4′-difluoro-4-hydroxybiphenyl-3-yl)carbonyl]hydrazine carbothioamide] | 3.17 ± 1.06 | – | 16.7 ± 2.8 | – | 11.7 ± 4.2 | – | – |
| O=C(NC(=S)NNC(=O)c1cc(-c2ccc(F)cc2F)ccc1O)c1ccccc1 [Compound 8, N-({2-[(2′,4′-Difluoro-4-hydroxybiphenyl-3-yl)carbonyl]hydrazinyl}carbonothioyl)benzamide] | 5.04 ± 1.5 | – | 8.07 ± 2 | – | 2.85 ± 3.6 | – | IC50 (HCT116 cell line [6]): 3.68 ± 2.1 µM |
| COc1ccccc1NC(=S)NNC(=O)c1cc(-c2ccc(F)cc2F)ccc1O [Compound 9, 2-[(2′,4′-Difluoro-4-hydroxybiphenyl-3-yl)carbonyl]-N-(2-methoxyphenyl)hydrazine carbothioamide] | 3.02 ± 1.9 | – | 3.86 ± 0.7 | – | 1.57 ± 1.4 | 3.92 ± 0.27 | IC50 (HCT116 cell line [6]): 1.83 ± 0.92 µM |
| CCc1ccc(NC(=S)NNC(=O)c2cc(-c3ccc(F)cc3F)ccc2O)cc1 [Compound 10, 2-[(2′,4′-Difluoro-4-hydroxybiphenyl-3-yl)carbonyl]-N-(4-ethylphenyl)hydrazine carbothioamide] | 94 ± 3.74 | slight insignificant increase in necrosis; also recorded: did not result in apoptosis | – | did not show cytotoxic effects | 11.7 ± 2.6 | – | apoptosis / necrosis, PC-3 (PC-3 cell line [4]): increase of late apoptosis markers; also recorded: undergo apoptosis highly; IC50 T47D (T47D cell line [1]): NSC; anticancer activity against PC-3 (in words) (PC-3 cell line [3]): displayed anti-tumourigenic activity |
| CCCn1c(-c2cc(-c3ccc(F)cc3F)ccc2O)n[nH]c1=S [Compound 11, 5-(2′,4′-Difluoro-4-hydroxybiphenyl-3-yl)-4-propyl-2,4-dihydro-3H-1,2,4-triazole-3-thione] | 11.5 ± 0.2 | – | 10.1 ± 1.57 | – | 174 ± 6.3 | 22.2 ± 2.3 | – |
| Oc1ccc(-c2ccc(F)cc2F)cc1-c1n[nH]c(=S)n1-c1cccc(F)c1 [Compound 12, 5-(2′,4′-Difluoro-4-hydroxybiphenyl-3-yl)-4-(3-fluorophenyl)-2,4-dihydro-3H-1,2,4-triazole-3-thione] | 10.7 ± 0.96 | – | 9.24 ± 1.01 | – | 34 ± 2.1 | 15 ± 1.3 | – |
| Oc1ccc(-c2ccc(F)cc2F)cc1-c1n[nH]c(=S)n1-c1cccc(Cl)c1 [Compound 13, 4-(3-Chlorophenyl)-5-(2′,4′-difluoro-4-hydroxybiphenyl-3-yl)-2,4-dihydro-3H-1,2,4-triazole-3-thione] | 8.7 ± 1.79 | – | 5.55 ± 2.7 | – | 34.1 ± 3.7 | 12.9 ± 2.1 | – |
| Oc1ccc(-c2ccc(F)cc2F)cc1-c1n[nH]c(=S)n1-c1cccc(Br)c1 [Compound 14, 4-(3-Bromophenyl)-5-(2′,4′-difluoro-4-hydroxybiphenyl-3-yl)-2,4-dihydro-3H-1,2,4-triazole-3-thione] | – | – | 11.5 ± 1.8 | – | – | – | IC50 PC-3 (PC-3 cell line [3]): PCV |
| Oc1ccc(-c2ccc(F)cc2F)cc1-c1n[nH]c(=S)n1-c1ccc(Br)cc1 [Compound 15, 4-(4-Bromophenyl)-5-(2′,4′-difluoro-4-hydroxybiphenyl-3-yl)-2,4-dihydro-3H-1,2,4-triazole-3-thione] | 145 ± 2.3 | did not result in apoptosis | 43.4 ± 2.72 | did not show cytotoxic effects | 145 ± 2.8 | – | anticancer activity against HCT-116 (in words) (HCT116 cell line [6]): did not show any activity; anticancer activity against T47D (in words) (T47D cell line [1]): demonstrated anticancer activity; anticancer activity against PC-3 (in words) (PC-3 cell line [3]): did not show any activity; apoptosis / necrosis, T47D (T47D cell line [7]): vast late apoptosis; also recorded: largely through late apoptosis |
| COc1ccccc1-n1c(-c2cc(-c3ccc(F)cc3F)ccc2O)n[nH]c1=S [Compound 16, 5-(2′,4′-Difluoro-4-hydroxybiphenyl-3-yl)-4-(2-methoxyphenyl)-2,4-dihydro-3H-1,2,4-triazole-3-thione] | 53 ± 2.39 | did not result in apoptosis | 27.3 ± 2.28 | did not show cytotoxic effects | 169 ± 3.9 | – | anticancer activity against HCT-116 (in words) (HCT116 cell line [6]): displayed activity; IC50 (HCT116 cell line [6]): 6.2 ± 3.1 µM; anticancer activity against T47D (in words) (T47D cell line [1]): demonstrated anticancer activity; apoptosis / necrosis, T47D (T47D cell line [7]): resulted in necrosis; apoptosis / necrosis, HCT116 (HCT116 cell line [8]): extensive apoptotic effect |
